Test results reported in publication PMC3589414, “Regulation of ASPP2 Interaction with p53 Core Domain by an Intramolecular Autoinhibitory Mechanism” (PLoS ONE, 2013).
Several values for one entry are separate records, joined by “and”; a condition that tells them apart may be missing. Equal values may be shown once. Entries after “also recorded” stand apart in the source; their conditions may differ. Where a SMILES comes first, the peptide text is derived from it. Where no end group is shown, it is not given here. The star is where a group is joined. 5FAM = O=C1OC2(c3ccc(O)cc3Oc3cc(O)ccc32)c2ccc(C(=O)*)cc21

Experiments:
[1] = target: T1, complex between ASPP2 Ank-SH3 and Fl-ASPP2 722–737 (Homo sapiens, UniProt Q13625); details: previously shown; cited from earlier work
T1 construct: pRSET HLT ASPP2 893–1128 vector; HLT (vector-encoded tag); made in house
T1 sequence (Q13625 893-1128): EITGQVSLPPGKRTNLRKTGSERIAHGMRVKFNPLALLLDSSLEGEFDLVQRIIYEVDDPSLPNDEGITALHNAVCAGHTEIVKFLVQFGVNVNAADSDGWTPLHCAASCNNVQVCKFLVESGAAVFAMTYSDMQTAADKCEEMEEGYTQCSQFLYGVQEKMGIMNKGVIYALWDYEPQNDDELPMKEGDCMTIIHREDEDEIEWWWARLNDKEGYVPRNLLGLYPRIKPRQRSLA
Source text: Fl-NFκB 303–332 was previously shown to bind ASPP2 Ank-SH3 and compete with the Pro peptide ASPP2 722–737 [13]. We thus assumed that NFκB 303–332 also binds the SH3 domain of ASPP2, similar to p53CD and the ASPP2 Pro peptide. […] The Bcl-2 BH4 peptide (residues 7–24) binds the RT loop of ASPP2 in different residues than the p53 loop3 [14], [22]. […] However, p53CD displaced Fl-NFκB 303–332 from its complex with ASPP2 Ank-SH3. ...

[2] = target: Bcl-2 peptide 7-24 (Homo sapiens) (UniProt P10415); assay: fluorescence anisotropy; details: cited from earlier work
[3] = target: T2, ASPP2 n-src peptide (residues 1089–1097) (Homo sapiens, UniProt Q13625); assay: Fluorescence anisotropy titration into Fl-ASPP2 n-src peptide; assay type: binding; details: 20 mM Hepes pH 7.0, IS 50 mM, 5 mM βME, data not shown
T2 construct: fluorescein-labeled (Fl) ASPP2 n-src peptide (residues 1089–1097); made in house; host or cells: chemical peptide synthesis

[4] = test system: complex between p53CD and Fl-ASPP2 1089–1097; assay: Fluorescence anisotropy competition: competitor added to complex of Fl-ASPP2 1089–1097 and p53CD; assay type: binding; details: 200 µl of 130 µM competitor added to 87 nM Fl-ASPP2 1089–1097 and 6.5 µM p53CD, 50 mM Hepes pH 7.0, IS = 20 mM, 10 mM βME, 10°C
Description: (§1) In the competition experiments, the conditions were as follows: 100–200 µl of competitor peptide or protein were added to a 1200 µl mixture of 83 nM Fl-ASPP2 722–737 and 8.3 µM ASPP2 Ank-SH3 at 20 mM Hepes pH 7.0, IS = 50 mM, 5 mM βME; 200 µl of 130 µM of competitor peptide were added to a 1150-µl mixture of 87 nM Fl peptide ASPP2 1089–1097 and 6.5 µM p53CD at 50 mM Hepes pH 7.0, IS = 20 mM, 10 mM βME; 200 µl of 130 µM of Bcl-2 103–120 or Bcl-2 7–24 were added to a 1100 µl mixture of 87 nM Fl-NFκB 303–332 and 2.25 µM ASPP2 Ank-SH3 or to 1150 µl mixture of 87 nM Fl-ASPP2 722–737 and 4.5 µM ASPP2 Ank-SH3 at 20 mM Hepes pH 7.0, IS = 50 mM, 5 mM βME. The K d of the competitor was calculated as described.

p53CD mutant I195T = details: to levels similar to wild-type; cited from earlier work
Source text: (§2) The TP53 gene encoding p53 is frequently mutated in human cancers and most of these reported mutations are in the DNA-binding core domain of the protein (p53CD), [25]. Some of these mutations lower the thermodynamic stability of p53, resulting in its unfolding and inactivation.

p53 R249S mutant = details: back towards wild-type-like structure; cited from earlier work
Source text: as §2

p53CD = details: 37°C, concentration-dependent; cited from earlier work
Source text: as §2

[5] = test system: colorectal carcinoma HCT116 cells; details: cited from earlier work
Source text: (§3) It is possible that the peptide inhibits the intramolecular interaction in ASPP2 and thus activates the p53-ASPP2 interaction that ...

[6] = test system: R175H and R273H mutant p53; details: cited from earlier work
Source text: as §3

HCT116 p53−/− cells = details: cited from earlier work
Source text: as §3

[7] = target: T1, complex between ASPP2 Ank-SH3 and Fl-ASPP2 722–737; assay: Fluorescence anisotropy competition: competitor added to complex of Fl-ASPP2 722–737 and ASPP2 Ank-SH3; assay type: binding; details: 83–87 nM Fl-ASPP2 722–737, 8.3 µM (p53CD) or 4.5 µM (Bcl-2 peptides) ASPP2 Ank-SH3, 20 mM Hepes pH 7.0, IS = 50 mM, 5 mM βME, 10°C
Description: as §1

[8] = target: T3, complex between ASPP2 Ank-SH3 and Fl-NFκB 303–332 (Homo sapiens, UniProt Q13625); assay: Fluorescence anisotropy competition: competitor added to complex of Fl-NFκB 303–332 and ASPP2 Ank-SH3; assay type: binding; details: Bcl-2 peptides: 200 µl of 130 µM added to 87 nM Fl-NFκB 303–332 and 2.25 µM ASPP2 Ank-SH3, 20 mM Hepes pH 7.0, IS = 50 mM; p53CD: IS = 150 mM; 10°C
T3 construct: pRSET HLT ASPP2 893–1128 vector; HLT (vector-encoded tag); made in house
T3 sequence (Q13625 893-1128): T1 sequence (Q13625 893-1128)
Description: as §1

[9] = test system: complex between Fl-ASPP2 1089–1097 and ASPP2 722–737; assay: Fluorescence anisotropy competition: p53CD added to complex of Fl-ASPP2 1089–1097 and ASPP2 722–737; assay type: binding; details: Figure 2A
Description: A major p53-interacting site in ASPP2 SH3 is situated in the n-src loop between residues 1089–1097 [14], [27] (Figure 1A, B). […] The ASPP2 Pro peptide (residues 722–737) was titrated into the fluorescein-labeled (Fl) ASPP2 n-src peptide (residues 1089–1097). […] In the opposite experiment p53CD was added to a pre-formed complex between the ASPP2 Pro peptide and the Fl-ASPP2 n-src peptide (Figure 2A).

[10] = target: T4, Fl-ASPP2 1089–1097 (fluorescein-labelled ASPP2 n-src loop peptide); assay: fluorescence polarisation; fluorescence anisotropy; p53CD or ASPP2 722–737 titrated into 100 nM Fl-ASPP2 1089–1097 in the cuvette; 10°C; 50 mM Hepes pH 7.0, 10 mM NaCl, 10 mM βME; 1:1 binding model; details: both partners purified
T4 construct: ASPP2 n-src loop of the SH3 domain, residues 1089-1097; also called Fl-ASPP2 n-src peptide; Fl-n-src peptide; source: synthetic peptide
T4 peptide: fluorescein-REDEDEIEW

[11] = target: T5, ASPP2 Ank-SH3 (ASPP2 893–1128) (UniProt Q13625 893-1128); assay: fluorescence polarisation; fluorescence anisotropy; ASPP2 Ank-SH3 titrated into Fl-NFκB 303–332; 10°C; 20 mM Hepes pH 7.0, 5 mM βME; ionic strength 150 mM (told for the competition done on this complex); details: both partners purified
T5 construct: ASPP2, four ankyrin repeats and SH3 domain, residues 893-1128
T5 sequence (looked up): T1 sequence (Q13625 893-1128)

[12] = target: T5, ASPP2 Ank-SH3 (ASPP2 893–1128); assay: fluorescence polarisation; fluorescence anisotropy; ASPP2 Ank-SH3 titrated into 100 nM fluorescein-labelled peptide; 10°C; 20 mM Hepes pH 7.0, 5 mM βME; ionic strength 50 mM (told for the competitions done on these complexes); 1:1 binding model; details: both partners purified

CC[C@H](C)[C@H](NC(=O)[C@H](CCCNC(=N)N)NC(=O)[C@H](CCCNC(=N)N)NC(=O)[C@@H]1CCCN1C(=O)[C@@H]1CCCN1C(=O)[C@@H]1CCCN1C(=O)[C@H](CCCNC(=N)N)NC(=O)[C@@H]1CCCN1C(=O)[C@H](CC(=O)O)NC(=O)[C@@H](NC(=O)[C@@H]1CCCN1C(=O)CNC(=O)[C@H](CO)NC(=O)[C@H](Cc1ccccc1)NC(=O)[C@@H]1CCCN1C(=O)[C@H](CO)NC(=O)[C@H](CCCCN)NC(=O)[C@H](CCCCN)NC(=O)[C@H](CCSC)NC(=O)[C@@H](NC(=O)[C@H](CO)NC(=O)[C@H](CCCCN)NC(=O)[C@H](Cc1ccccc1)NC(=O)[C@@H](NC(=O)[C@H](CCC(=O)O)NC(=O)[C@H](Cc1ccc(O)cc1)NC(=O)[C@@H](NC(=O)[C@H](CCCNC(=N)N)NC(=O)[C@H](CCCCN)NC(=O)c1ccc2c(c1)C(=O)OC21c2ccc(O)cc2Oc2cc(O)ccc21)[C@@H](C)O)[C@@H](C)O)[C@@H](C)CC)[C@@H](C)O)C(=O)N[C@@H](C)C(N)=O [Fl-NFκB 303–332] (5FAM-KRTYETFKSIMKKSPFSGPTDPRPPPRRIA-NH2)
Competition of NFκB 303–332 with Pro peptide ASPP2 722–737 for ASPP2 Ank-SH3 [1]: compete

ASPP2 Ank-SH3 Ank-SH3 (from UniProt Q13625)
Kd [2]: 4700 nM

KRTYETFKSIMKKSPFSGPTDPRPPPRRIA [NFκB 303–332]
Binding of NFκB 303–332 to the n-src loop peptide [3]: did not bind | Competition of NFκB 303–332 with Pro peptide ASPP2 722–737 for ASPP2 Ank-SH3 [1]: competed | Displacement of p53CD from its complex with Fl-ASPP2 n-src peptide 1089–1097 by non-labeled peptide [4]: did not compete

NFκB 21–50: unlabeled peptide derived from the ASPP2-binding sites in NFκB (VEIIEQPKQRGMRFRYKCEGRSAGSIPGER)
Displacement of p53CD from its complex with Fl-ASPP2 n-src peptide 1089–1097 by non-labeled peptide [4]: did not compete

REDEDEIEW [ASPP2 1089–1097, nine-residue peptide derived from ASPP2 n-src loop (residues 1089–1097), also termed CDB3]
Specific DNA binding activity of p53CD mutant I195T (p53CD mutant I195T): restored the specific DNA binding activity | Structural effects of mutation in p53 R249S (p53 R249S mutant): rescued the structural effects of mutation | Unfolding of p53CD (p53CD): slowed down the unfolding | Sensitization to apoptosis induced by γ-irradiation [5]: sensitize | Conformation of R175H and R273H mutant p53 in cells [6]: restored the wild-type conformation | Sensitization to apoptosis induced by γ-irradiation (HCT116 p53−/− cells): not

RRYRRDFAEMSSQLHLTP [Bcl-2 103–120]
Displacement of Fl-ASPP2 722–737 from its complex with ASPP2 Ank-SH3 [7]: did not displace; also recorded: did not compete | Displacement of Fl-NFκB 303–332 from its complex with ASPP2 Ank-SH3 [8]: did not displace; also recorded: did not compete | Displacement of p53CD from its complex with Fl-ASPP2 n-src peptide 1089–1097 by non-labeled peptide [4]: did not compete

YDNREIVMKYIHYKLSQR [Bcl-2 7–24, Bcl2 BH4 derived peptide, residues 7–24]
Displacement of Fl-ASPP2 722–737 from its complex with ASPP2 Ank-SH3 [7]: did not displace; also recorded: did not compete | Displacement of Fl-NFκB 303–332 from its complex with ASPP2 Ank-SH3 [8]: did not displace; also recorded: did not compete | Displacement of p53CD from its complex with Fl-ASPP2 n-src peptide 1089–1097 by non-labeled peptide [4]: did not compete

p53CD: recombinant p53 DNA-binding core domain, residues 94–312, expressed in E. coli
Anisotropy change on adding p53CD to pre-formed complex of ASPP2 Pro peptide and Fl-ASPP2 n-src peptide [9]: the final anisotropy level increased | Displacement of Fl-ASPP2 722–737 from its complex with ASPP2 Ank-SH3 [7]: displaced | Displacement of Fl-NFκB 303–332 from its complex with ASPP2 Ank-SH3 [8]: displaced

B1: ASPP2 722–737 (ASPP2 Pro peptide, non-labelled) (peptide)
peptide: WRKKLSNAPRPLKKRSS
notes: Trp added at the N terminus of the peptide for UV spectroscopy; A natural stretch with one added N-terminal Trp; source: synthetic peptide
Kd [10]: 500 ± 30 nM

B2: Fl-NFκB 303–332 (fluorescein-labelled NFκB p65 peptide) (peptide)
peptide: fluorescein-KRTYETFKSIMKKSPFSGPTDPRPPPRRIA
notes: also called NFκB peptide; source: synthetic peptide
Kd [11]: 470 ± 20 nM | Kd [12]: 130 ± 10 nM

B3: Fl-ASPP2 722–737 (fluorescein-labelled ASPP2 Pro peptide) (peptide)
peptide: fluorescein-WRKKLSNAPRPLKKRSS
notes: Trp added at the N terminus of the peptide for UV spectroscopy; also called Fl-ASPP2 Pro peptide; source: synthetic peptide
Kd [12]: 680 nM and 820 nM
